Measurements as given in ChEMBL document CHEMBL3734705, “Synthesis and in vitro cytotoxicity of novel C-12 substituted-14-deoxy-andrographolide derivatives as potent anti-cancer agents” (2015).
Activity calls are given as the source filed them. No cut-off for these calls is given here.

Columns and labels:
[1] = system: K562; assay: Cytotoxicity against human K562 cells assessed as growth inhibition at 10 uM after 48 hrs by SRB assay; assay type: functional; settings: K562, 48 h, read-out: GI
[2] = system: M14; assay: Cytotoxicity against human M14 cells assessed as growth level at 10 uM after 48 hrs by SRB assay; assay type: functional
[3] = Cytotoxicity against human RXF393 cells assessed as growth inhibition at 10 uM after 48 hrs by SRB assay; assay type: functional; settings: RXF 393, 48 h, read-out: GI
[4] = Cytotoxicity against human UACC62 cells assessed as growth level at 10 uM after 48 hrs by SRB assay; assay type: functional, UACC-62
[5] = Cytotoxicity against human LOXIMVI cells assessed as growth level at 10 uM after 48 hrs by SRB assay; assay type: functional, LOX IMVI
[6] = Cytotoxicity against human HL-60(TB) cells assessed as growth level at 10 uM after 48 hrs by SRB assay; assay type: functional
[7] = Cytotoxicity against human HCT15 cells assessed as growth inhibition at 10 uM after 48 hrs by SRB assay; assay type: functional; settings: HCT-15, 48 h, read-out: GI
[8] = Cytotoxicity against human BT549 cells assessed as growth level at 10 uM after 48 hrs by SRB assay; assay type: functional, BT-549
[9] = Cytotoxicity against human DU145 cells assessed as growth level at 10 uM after 48 hrs by SRB assay; assay type: functional, DU-145
[10] = Cytotoxicity against human SNB75 cells assessed as growth level at 10 uM after 48 hrs by SRB assay; assay type: functional, SNB-75
[11] = system: Malme-3M; assay: Cytotoxicity against human MALME-3M cells assessed as growth inhibition at 10 uM after 48 hrs by SRB assay; assay type: functional; settings: read-out: GI
[12] = system: Malme-3M; assay: Cytotoxicity against human MALME-3M cells assessed as growth level at 10 uM after 48 hrs by SRB assay; assay type: functional
[13] = system: SN12C; assay: Cytotoxicity against human SN12C cells assessed as growth level at 10 uM after 48 hrs by SRB assay; assay type: functional
[14] = Cytotoxicity against human SW620 cells assessed as growth level at 10 uM after 48 hrs by SRB assay; assay type: functional, SW-620
[15] = Cytotoxicity against human HCC2998 cells assessed as growth inhibition at 10 uM after 48 hrs by SRB assay; assay type: functional; settings: HCC 2998, 48 h, read-out: GI
[16] = system: ACHN; assay: Cytotoxicity against human ACHN cells assessed as growth inhibition at 10 uM after 48 hrs by SRB assay; assay type: functional; settings: read-out: GI
[17] = Cytotoxicity against human OVCAR8 cells assessed as growth inhibition at 10 uM after 48 hrs by SRB assay; assay type: functional; settings: OVCAR-8, 48 h, read-out: GI
[18] = system: NCI-H226; assay: Cytotoxicity against human NCI-H226 cells assessed as growth level at 10 uM after 48 hrs by SRB assay; assay type: functional
[19] = Cytotoxicity against human OVCAR4 cells assessed as growth level at 10 uM after 48 hrs by SRB assay; assay type: functional, OVCAR-4
[20] = system: U-251; assay: Cytotoxicity against human U251 cells assessed as growth inhibition at 10 uM after 48 hrs by SRB assay; assay type: functional; settings: U-251, 48 h, read-out: GI
[21] = system: CCRF-CEM; assay: Cytotoxicity against human CCRF-CEM cells assessed as growth level at 10 uM after 48 hrs by SRB assay; assay type: functional
[22] = Cytotoxicity against human MOLT4 cells assessed as growth inhibition at 10 uM after 48 hrs by SRB assay; assay type: functional; settings: MOLT-4, 48 h, read-out: GI
[23] = Cytotoxicity against human PC3 cells assessed as growth inhibition at 10 uM after 48 hrs by SRB assay; assay type: functional; settings: PC-3, 48 h, read-out: GI
[24] = Cytotoxicity against human SW620 cells assessed as growth inhibition at 10 uM after 48 hrs by SRB assay; assay type: functional; settings: SW-620, 48 h, read-out: GI
[25] = Cytotoxicity against human SF295 cells assessed as growth inhibition at 10 uM after 48 hrs by SRB assay; assay type: functional; settings: SF-295, 48 h, read-out: GI
[26] = Cytotoxicity against human UACC257 cells assessed as growth inhibition at 10 uM after 48 hrs by SRB assay; assay type: functional; settings: UACC-257, 48 h, read-out: GI
[27] = system: NCI-H23; assay: Cytotoxicity against human NCI-H23 cells assessed as growth level at 10 uM after 48 hrs by SRB assay; assay type: functional
[28] = system: MDA-MB-468; assay: Cytotoxicity against human MDA-MB-468 cells assessed as growth inhibition at 10 uM after 48 hrs by SRB assay; assay type: functional; settings: MDA-MB-468, 48 h, read-out: GI
[29] = Cytotoxicity against human NCI-ADR-RES cells assessed as growth level at 10 uM after 48 hrs by SRB assay; assay type: functional
[30] = system: MDA-MB-468; assay: Cytotoxicity against human MDA-MB-468 cells assessed as growth level at 10 uM after 48 hrs by SRB assay; assay type: functional
[31] = system: 786-0; assay: Cytotoxicity against human 786-0 cells assessed as growth level at 10 uM after 48 hrs by SRB assay; assay type: functional
[32] = Cytotoxicity against human HCT116 cells assessed as growth level at 10 uM after 48 hrs by SRB assay; assay type: functional, HCT-116
[33] = Cytotoxicity against human COLO205 cells assessed as growth inhibition at 10 uM after 48 hrs by SRB assay; assay type: functional; settings: COLO 205, 48 h, read-out: GI
[34] = system: NCI-H322M; assay: Cytotoxicity against human NCI-H322M cells assessed as growth inhibition at 10 uM after 48 hrs by SRB assay; assay type: functional
[35] = Cytotoxicity against human SF295 cells assessed as growth level at 10 uM after 48 hrs by SRB assay; assay type: functional, SF-295
[36] = Cytotoxicity against human RPMI8226 cells assessed as growth inhibition at 10 uM after 48 hrs by SRB assay; assay type: functional; settings: RPMI-8226, 48 h, read-out: GI
[37] = system: CCRF-CEM; assay: Cytotoxicity against human CCRF-CEM cells assessed as growth inhibition at 10 uM after 48 hrs by SRB assay; assay type: functional; settings: read-out: GI
[38] = system: A498; assay: Cytotoxicity against human A498 cells assessed as growth level at 10 uM after 48 hrs by SRB assay; assay type: functional
[39] = system: MDA-MB-435; assay: Cytotoxicity against human MDA-MB-435 cells assessed as growth inhibition at 10 uM after 48 hrs by SRB assay; assay type: functional; settings: MDA-MB-435, 48 h, read-out: GI
[40] = system: SK-MEL-28; assay: Cytotoxicity against human SK-MEL-28 cells assessed as growth level at 10 uM after 48 hrs by SRB assay; assay type: functional
[41] = Cytotoxicity against human SNB19 cells assessed as growth inhibition at 10 uM after 48 hrs by SRB assay; assay type: functional; settings: SNB-19, 48 h, read-out: GI
[42] = system: A498; assay: Cytotoxicity against human A498 cells assessed as growth inhibition at 10 uM after 48 hrs by SRB assay; assay type: functional; settings: A498, 48 h, read-out: GI
[43] = system: U-251; assay: Cytotoxicity against human U251 cells assessed as growth level at 10 uM after 48 hrs by SRB assay; assay type: functional
[44] = system: SK-MEL-28; assay: Cytotoxicity against human SK-MEL-28 cells assessed as growth inhibition at 10 uM after 48 hrs by SRB assay; assay type: functional; settings: SK-MEL-28, 48 h, read-out: GI

## C=C1CC[C@@H]2[C@](C)(COC(C)=O)[C@H](OC(C)=O)CC[C@@]2(C)[C@@H]1CC(NCc1ccccc1)C1=CCOC1=O (mixture of isomers)
[1]
  inhibition of growth at 10 µM: 75.3%
[2]
  Activity: 42.07%
[3]
  inhibition of growth at 10 µM: 25.7%
[4]
  Activity: 38.81%
[5]
  Activity: 44.58%
[6]
  Activity: -9.93%
[7]
  inhibition of growth at 10 µM: 59%
[8]
  Activity: 28.11%
[9]
  Activity: 67.16%
[10]
  Activity: 76.94%
[11]
  inhibition of growth at 10 µM: 22.9%
[12]
  Activity: 77.12%
[13]
  Activity: 58.19%
[14]
  Activity: 47.31%
[15]
  inhibition of growth at 10 µM: 6.31%
[16]
  inhibition of growth at 10 µM: 53.6%
[17]
  inhibition of growth at 10 µM: 71.8%
[18]
  Activity: 11.36%
[19]
  Activity: 35.88%
[20]
  inhibition of growth at 10 µM: 52.4%
[21]
  Activity: 20.9%
[22]
  inhibition of growth at 10 µM: 3.86%
[23]
  inhibition of growth at 10 µM: 89.9%
[24]
  inhibition of growth at 10 µM: 52.7%
[25]
  inhibition of growth at 10 µM: 36.1%
[26]
  inhibition of growth at 10 µM: 67.2%
[27]
  Activity: 57.36%
[28]
  inhibition of growth at 10 µM: 77.1%
[29]
  Activity: 23.47%
[30]
  Activity: 22.86%
[31]
  Activity: 71.35%
[32]
  Activity: 42.32%
[33]
  inhibition of growth at 10 µM: 54.4%
[34]; read-out: GI
  inhibition of growth at 10 µM: 23%
[35]
  Activity: 63.88%
[36]
  inhibition of growth at 10 µM: 96.8%
[37]
  inhibition of growth at 10 µM: 79.1%
[38]
  Activity: 56.22%
[39]
  inhibition of growth at 10 µM: 72.1%
[40]
  Activity: 68.59%
[41]
  inhibition of growth at 10 µM: 31.8%
[42]
  inhibition of growth at 10 µM: 43.8%
[43]
  Activity: 47.58%
[44]
  inhibition of growth at 10 µM: 31.4%

## C=C1CC[C@@H]2[C@](C)(COC(C)=O)[C@H](OC(C)=O)CC[C@@]2(C)[C@@H]1CC(NC1CCCC1)C1=CCOC1=O (some centres not stated)
[1]
  inhibition of growth at 10 µM: 51.7%
[2]
  Activity: 79.06%
[3]
  inhibition of growth at 10 µM: 22%
[4]
  Activity: 65.59%
[5]
  Activity: 68.48%
[6]
  Activity: 42.67%
[7]
  inhibition of growth at 10 µM: 33%
[8]
  Activity: 55.62%
[9]
  Activity: 91.96%
[10]
  Activity: 68.03%
[11]
  inhibition of growth at 10 µM: 15.4%
[12]
  Activity: 84.55%
[13]
  Activity: 78.46%
[14]
  Activity: 67.48%
[15]
  inhibition of growth at 10 µM: 9.65%
[16]
  inhibition of growth at 10 µM: 21.5%
[17]
  inhibition of growth at 10 µM: 46.3%
[18]
  Activity: 84.46%
[19]
  Activity: 58.35%
[20]
  inhibition of growth at 10 µM: 24.6%
[21]
  Activity: 63.47%
[22]
  inhibition of growth at 10 µM: 57.6%
[23]
  inhibition of growth at 10 µM: 55.3%
[24]
  inhibition of growth at 10 µM: 32.5%
[25]
  inhibition of growth at 10 µM: 9.61%
[26]
  inhibition of growth at 10 µM: 61.6%
[27]
  Activity: 62.53%
[28]
  inhibition of growth at 10 µM: 65.3%
[29]
  Activity: 68.47%
[30]
  Activity: 34.72%
[31]
  Activity: 92.51%
[32]
  Activity: 44.68%
[33]
  inhibition of growth at 10 µM: 24.8%
[34]
  growth inhibition (GI): inactive
[35]
  Activity: 90.39%
[36]
  inhibition of growth at 10 µM: 62.5%
[37]
  inhibition of growth at 10 µM: 36.5%
[38]
  Activity: 68%
[39]
  inhibition of growth at 10 µM: 24.3%
[40]
  Activity: 91.05%
[42]
  inhibition of growth at 10 µM: 32%
[43]
  Activity: 75.39%
[44]
  inhibition of growth at 10 µM: 8.95%
